# Activity calls are given as the source filed them.
# Experiments:
# CAAX prenyl protease 2 = target: T1, CAAX prenyl protease 2 (Saccharomyces cerevisiae S288c, UniProt Q03530); format: biochemical
# T1 sequence (Q03530 whole entry): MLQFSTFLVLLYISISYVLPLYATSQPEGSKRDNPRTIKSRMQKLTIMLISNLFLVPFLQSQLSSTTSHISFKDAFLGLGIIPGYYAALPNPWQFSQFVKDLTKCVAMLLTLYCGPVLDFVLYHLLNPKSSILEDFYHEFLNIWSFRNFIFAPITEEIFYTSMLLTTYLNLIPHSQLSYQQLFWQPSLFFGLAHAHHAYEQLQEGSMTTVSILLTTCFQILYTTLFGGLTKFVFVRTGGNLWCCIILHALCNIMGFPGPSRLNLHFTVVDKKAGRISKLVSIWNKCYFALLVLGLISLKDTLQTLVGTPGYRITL
# Troponin, cardiac muscle = Troponin, cardiac muscle (Homo sapiens, UniProt P19429+P45379+P63316); assay: Fluorescence-based biochemical high throughput dose response assay for activators of the calcium sensitivity of cardiac Regulated Thin Filaments (RTF). [Related pubchem assays (depositor defined):AID493008, AID493018, AID504382, AID504383]; format: protein-complex assay
# [1] = target: T2, Corticotropin-releasing factor receptor 2/Corticotropin-releasing factor-binding protein (Homo sapiens, UniProt P24387+Q13324); assay: activators of CRF receptor 2 with binding protein – uHTS hits, confirmation (AID 602473); format: functional; details: read-out: EC50_Mean
# T2 sequence (Q13324 whole entry): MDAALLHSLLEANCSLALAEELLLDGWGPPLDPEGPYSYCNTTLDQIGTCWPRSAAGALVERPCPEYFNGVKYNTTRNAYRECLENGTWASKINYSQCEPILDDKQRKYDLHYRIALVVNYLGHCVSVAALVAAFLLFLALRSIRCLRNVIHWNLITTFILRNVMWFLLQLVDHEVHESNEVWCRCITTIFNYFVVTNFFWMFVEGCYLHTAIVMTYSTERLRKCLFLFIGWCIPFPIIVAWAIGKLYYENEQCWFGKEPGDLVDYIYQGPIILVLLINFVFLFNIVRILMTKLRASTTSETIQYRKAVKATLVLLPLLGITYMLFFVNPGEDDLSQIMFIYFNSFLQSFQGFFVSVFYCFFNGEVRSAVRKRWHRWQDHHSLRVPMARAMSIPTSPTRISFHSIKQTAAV
# T2 sequence (P24387 whole entry): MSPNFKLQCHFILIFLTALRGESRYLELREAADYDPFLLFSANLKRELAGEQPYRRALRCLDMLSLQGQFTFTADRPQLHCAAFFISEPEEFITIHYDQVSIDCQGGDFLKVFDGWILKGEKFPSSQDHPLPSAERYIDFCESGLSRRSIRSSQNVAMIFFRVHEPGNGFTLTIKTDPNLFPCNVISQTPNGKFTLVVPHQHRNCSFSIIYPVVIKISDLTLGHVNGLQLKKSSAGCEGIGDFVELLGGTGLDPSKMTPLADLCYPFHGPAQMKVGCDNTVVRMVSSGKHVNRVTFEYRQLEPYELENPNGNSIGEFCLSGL
# cells [2] = format: functional, cell-based; details: HEK-CNG
# Galanin receptor type 3 = target: T3, Galanin receptor type 3 (Homo sapiens, UniProt O60755); assay: Fluorescence-based cell-based primary high throughput dose response assay to identify antagonists of the Galanin Receptor 3 (GalR3).; format: functional
# T3 sequence (O60755 whole entry): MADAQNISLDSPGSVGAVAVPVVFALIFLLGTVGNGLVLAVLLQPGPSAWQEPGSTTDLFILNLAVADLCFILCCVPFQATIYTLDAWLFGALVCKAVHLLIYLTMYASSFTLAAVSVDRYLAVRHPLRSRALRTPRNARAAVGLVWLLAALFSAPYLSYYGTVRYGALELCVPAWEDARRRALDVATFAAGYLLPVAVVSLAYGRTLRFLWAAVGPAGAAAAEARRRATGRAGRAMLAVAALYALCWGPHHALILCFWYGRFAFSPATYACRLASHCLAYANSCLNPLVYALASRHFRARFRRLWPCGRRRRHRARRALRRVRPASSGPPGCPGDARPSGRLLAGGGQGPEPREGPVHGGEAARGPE
# [3] = A cytotoxicity screen of small molecule inhibitors of the PhoP region in Salmonella typhi identified in the primary screen. [Related pubchem assays: 1850, 1864, 1985 ]; format: functional
# [4] = target: T4, Microphthalmia-associated transcription factor (Homo sapiens, UniProt O75030); assay: TRPM1 promoter luciferase signal decrease, dose response, MITF inhibitor project, cell-based, SK-MEL-5, cherry-picked, set 3 (AID 493073); format: functional
# T4 sequence (O75030 whole entry): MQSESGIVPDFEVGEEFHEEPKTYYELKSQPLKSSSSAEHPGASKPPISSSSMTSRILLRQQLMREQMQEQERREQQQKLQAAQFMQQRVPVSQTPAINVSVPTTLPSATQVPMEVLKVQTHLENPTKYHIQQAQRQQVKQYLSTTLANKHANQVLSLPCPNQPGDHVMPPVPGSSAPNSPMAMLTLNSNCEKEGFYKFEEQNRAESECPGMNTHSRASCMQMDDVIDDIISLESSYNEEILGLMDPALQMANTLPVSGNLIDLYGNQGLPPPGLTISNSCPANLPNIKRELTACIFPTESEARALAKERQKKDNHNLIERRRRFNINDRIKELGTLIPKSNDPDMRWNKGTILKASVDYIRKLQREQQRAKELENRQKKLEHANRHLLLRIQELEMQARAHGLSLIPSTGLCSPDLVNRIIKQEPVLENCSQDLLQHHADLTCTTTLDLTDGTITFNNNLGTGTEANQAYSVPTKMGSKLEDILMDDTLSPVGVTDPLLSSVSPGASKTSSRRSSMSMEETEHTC
# cells [5] = format: functional
# Streptococcus = assay: Group A Streptococcus viability loss, dose response, counter-screen for streptokinase expression inhibitor project, luminescence, BacTiterGlo (AID 1915); format: functional, organism-based;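 also: potency for reduction of bacterial viability or growth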
# [6] = system: Streptococcus sp. 'group A'; assay: growth inhibition of control SK(-) GAS strain, dose response, counter-screen for streptokinase expression inhibitor project, luminescence, kanamycin, BacTiterGlo, confirmation (AID 1900); format: functional, organism-based
# [7] = Vero E6 cell cytotoxicity, dose response, cytotoxicity control for non-replicating M. tuberculosis project, secondary assay (AID 492998); format: functional, VeroE6; details: Vero C1008
# [8] = HepG2 cell cytotoxicity, dose response, cytotoxicity control for non-replicating M. tuberculosis project (AID 489018); format: functional; details: Mycobacterium tuberculosis
# [9] = THP-1 cell cytotoxicity, dose response, cytotoxicity control for non-replicating M. tuberculosis project (AID 489025); format: functional
# [10] = C. albicans growth with fluconazole, confirmation, fluorescence, retest (AID 2467); format: functional, cell-based
# [11] = NIH-3T3 fibroblast cytotoxicity, dose response, cytotoxicity control, cell-based, fluorescence, Alamar Blue, secondary assay (AID 2327); format: functional;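 also: NIH-3T3 mouse fibroblasts cultured with fluconazole at 8 µg/mL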
# Trypsin = Trypsin (Sus scrofa, UniProt P00761); assay: porcine trypsin inhibitors, dose response, selectivity assay for Rce1 protease inhibitor project, biochemical, quenched peptide fluorescence, cherry-pick (AID 488789)
# Sequence of Trypsin (P00761 whole entry): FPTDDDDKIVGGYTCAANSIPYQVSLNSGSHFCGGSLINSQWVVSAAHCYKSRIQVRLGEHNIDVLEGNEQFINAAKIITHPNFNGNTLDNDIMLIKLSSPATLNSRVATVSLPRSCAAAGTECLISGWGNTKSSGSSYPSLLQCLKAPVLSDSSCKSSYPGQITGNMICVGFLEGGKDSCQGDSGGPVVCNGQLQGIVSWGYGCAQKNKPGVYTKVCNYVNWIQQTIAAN
# Beta-galactosidase = Beta-galactosidase (Escherichia coli, UniProt Q8VNN2); assay: Dose response counterscreen for EBI2 assay utilizing the enzyme, b-galactosidase.; format: functional
# Sequence of Beta-galactosidase (Q8VNN2 whole entry): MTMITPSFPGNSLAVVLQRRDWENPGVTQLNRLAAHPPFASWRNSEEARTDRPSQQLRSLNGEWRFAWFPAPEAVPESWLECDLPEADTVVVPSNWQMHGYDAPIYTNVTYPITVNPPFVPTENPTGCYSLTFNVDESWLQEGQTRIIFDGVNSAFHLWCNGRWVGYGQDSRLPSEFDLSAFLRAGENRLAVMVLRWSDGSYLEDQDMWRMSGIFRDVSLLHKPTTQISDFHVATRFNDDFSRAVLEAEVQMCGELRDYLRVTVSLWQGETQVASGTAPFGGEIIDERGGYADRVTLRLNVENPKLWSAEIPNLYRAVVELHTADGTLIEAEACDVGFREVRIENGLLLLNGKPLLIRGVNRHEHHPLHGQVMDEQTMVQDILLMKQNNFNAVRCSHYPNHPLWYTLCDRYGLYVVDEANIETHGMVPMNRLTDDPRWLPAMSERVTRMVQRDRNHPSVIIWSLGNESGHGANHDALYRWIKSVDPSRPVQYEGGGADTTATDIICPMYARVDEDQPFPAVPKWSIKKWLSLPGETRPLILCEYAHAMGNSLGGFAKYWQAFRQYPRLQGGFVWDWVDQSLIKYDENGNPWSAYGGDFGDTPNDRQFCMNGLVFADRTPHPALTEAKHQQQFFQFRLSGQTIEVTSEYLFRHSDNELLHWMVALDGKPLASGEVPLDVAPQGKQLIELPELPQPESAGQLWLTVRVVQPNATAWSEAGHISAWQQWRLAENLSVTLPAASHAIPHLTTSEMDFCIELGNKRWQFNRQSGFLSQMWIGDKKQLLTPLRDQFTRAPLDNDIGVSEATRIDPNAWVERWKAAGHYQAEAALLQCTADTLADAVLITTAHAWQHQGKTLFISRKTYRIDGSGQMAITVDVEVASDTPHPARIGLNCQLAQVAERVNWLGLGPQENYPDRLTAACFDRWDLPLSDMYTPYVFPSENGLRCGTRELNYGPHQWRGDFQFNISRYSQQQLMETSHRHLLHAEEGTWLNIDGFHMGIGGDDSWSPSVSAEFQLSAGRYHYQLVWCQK
# [12] = target: Glyceraldehyde-3-phosphate dehydrogenase (Homo sapiens, UniProt P04406)
# Sequence of Glyceraldehyde-3-phosphate dehydrogenase (P04406 whole entry): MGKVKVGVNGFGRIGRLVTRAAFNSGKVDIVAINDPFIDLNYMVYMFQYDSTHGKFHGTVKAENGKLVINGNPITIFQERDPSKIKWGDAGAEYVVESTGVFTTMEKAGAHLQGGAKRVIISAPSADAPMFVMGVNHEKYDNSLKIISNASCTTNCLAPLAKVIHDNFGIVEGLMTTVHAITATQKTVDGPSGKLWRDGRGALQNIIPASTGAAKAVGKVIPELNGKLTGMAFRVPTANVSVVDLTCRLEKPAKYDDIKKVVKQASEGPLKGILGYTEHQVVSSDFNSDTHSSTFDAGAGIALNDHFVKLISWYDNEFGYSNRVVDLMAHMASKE
# [13] = target: T5, Alkaline phosphatase, tissue-nonspecific isozyme (Homo sapiens, UniProt P05186); assay: human TNAP enzyme inhibitors, SAR follow-up, biochemical, luminescent, dose response (AID 1056)
# T5 sequence (P05186 whole entry): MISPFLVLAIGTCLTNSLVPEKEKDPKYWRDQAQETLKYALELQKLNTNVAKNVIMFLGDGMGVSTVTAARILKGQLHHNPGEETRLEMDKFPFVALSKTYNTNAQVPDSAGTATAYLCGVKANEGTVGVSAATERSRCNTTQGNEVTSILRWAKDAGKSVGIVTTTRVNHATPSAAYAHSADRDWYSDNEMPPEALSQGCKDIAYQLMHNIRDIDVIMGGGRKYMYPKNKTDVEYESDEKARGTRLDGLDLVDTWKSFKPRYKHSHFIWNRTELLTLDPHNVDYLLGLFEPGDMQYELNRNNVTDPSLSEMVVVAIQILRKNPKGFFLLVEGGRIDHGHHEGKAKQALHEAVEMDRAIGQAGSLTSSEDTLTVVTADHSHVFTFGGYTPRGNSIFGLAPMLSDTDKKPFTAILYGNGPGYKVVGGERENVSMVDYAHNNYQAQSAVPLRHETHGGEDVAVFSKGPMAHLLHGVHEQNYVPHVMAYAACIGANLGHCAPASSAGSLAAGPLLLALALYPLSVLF
# [14] = target: Alkaline phosphatase, placental type (Homo sapiens, UniProt P05187); assay: PLAP enzyme inhibitors, confirmation, biochemical, luminescence (AID 1512); format: functional
# Sequence of Alkaline phosphatase, placental type (P05187 whole entry): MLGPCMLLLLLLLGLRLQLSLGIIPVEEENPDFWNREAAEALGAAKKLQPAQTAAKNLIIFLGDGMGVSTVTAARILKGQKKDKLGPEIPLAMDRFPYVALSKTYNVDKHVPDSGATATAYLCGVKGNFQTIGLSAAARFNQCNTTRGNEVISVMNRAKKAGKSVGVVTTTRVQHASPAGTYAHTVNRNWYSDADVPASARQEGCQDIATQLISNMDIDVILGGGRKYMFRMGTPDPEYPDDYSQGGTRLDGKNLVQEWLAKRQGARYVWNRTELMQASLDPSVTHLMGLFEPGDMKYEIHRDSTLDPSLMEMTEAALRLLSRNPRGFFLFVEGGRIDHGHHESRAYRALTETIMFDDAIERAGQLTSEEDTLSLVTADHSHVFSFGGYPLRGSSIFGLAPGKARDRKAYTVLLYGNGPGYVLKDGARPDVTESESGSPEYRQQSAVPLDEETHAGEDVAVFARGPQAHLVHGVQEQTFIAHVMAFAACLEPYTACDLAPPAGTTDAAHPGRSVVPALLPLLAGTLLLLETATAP
# [15] = target: G-protein coupled receptor 55 (Homo sapiens, UniProt Q9Y2T6); assay: GPR55 agonists via beta-arrestin recruitment, primary screen, imaging, U2OS cells, beta-arrestin-GFP redistribution (AID 1961); format: functional
# Sequence of G-protein coupled receptor 55 (Q9Y2T6 whole entry): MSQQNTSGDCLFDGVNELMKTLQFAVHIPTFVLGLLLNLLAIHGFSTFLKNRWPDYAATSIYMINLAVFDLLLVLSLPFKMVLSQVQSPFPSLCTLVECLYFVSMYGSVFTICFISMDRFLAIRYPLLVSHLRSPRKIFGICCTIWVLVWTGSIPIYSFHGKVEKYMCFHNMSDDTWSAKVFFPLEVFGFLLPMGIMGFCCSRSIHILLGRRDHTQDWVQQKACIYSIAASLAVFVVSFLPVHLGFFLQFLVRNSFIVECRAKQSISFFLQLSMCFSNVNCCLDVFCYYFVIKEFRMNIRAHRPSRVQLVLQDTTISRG
# Protein skinhead-1 = target: T6, Protein skinhead-1 (Caenorhabditis elegans, UniProt P34707); format: functional
# T6 sequence (P34707 whole entry): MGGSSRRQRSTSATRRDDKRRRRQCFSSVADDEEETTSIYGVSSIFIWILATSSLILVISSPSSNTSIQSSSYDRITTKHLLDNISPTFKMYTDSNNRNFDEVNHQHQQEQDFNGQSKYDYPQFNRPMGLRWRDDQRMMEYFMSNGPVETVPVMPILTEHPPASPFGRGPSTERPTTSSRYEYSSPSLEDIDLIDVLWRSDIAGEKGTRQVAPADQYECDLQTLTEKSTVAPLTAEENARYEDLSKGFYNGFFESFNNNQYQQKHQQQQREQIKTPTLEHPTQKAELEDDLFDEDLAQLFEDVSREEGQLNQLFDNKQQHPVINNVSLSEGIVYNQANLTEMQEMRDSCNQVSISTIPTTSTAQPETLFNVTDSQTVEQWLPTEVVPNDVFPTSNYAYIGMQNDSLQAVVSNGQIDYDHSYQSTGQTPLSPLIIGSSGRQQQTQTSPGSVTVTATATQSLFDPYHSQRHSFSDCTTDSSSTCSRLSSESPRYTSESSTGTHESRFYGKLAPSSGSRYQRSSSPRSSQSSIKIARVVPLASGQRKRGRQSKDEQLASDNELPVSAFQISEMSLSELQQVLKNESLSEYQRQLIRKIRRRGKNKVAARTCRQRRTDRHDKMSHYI
# [16] = target: T7, Heat shock factor protein 1 (Mus musculus, UniProt P38532); assay: HSF1 potentiators in luciferase reporter cells, confirmation, cell-based, NIH3T3, luminescence, dose retest (AID 435004); format: functional;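 also: stress induced by proteasome inhibitor MG132 added 30 min after compound; luciferase reporter driven by HSF1 response element in NIH3T3 cells; actives raise luminescence as potentiators of the MG132 stress response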
# T7 sequence (P38532 whole entry): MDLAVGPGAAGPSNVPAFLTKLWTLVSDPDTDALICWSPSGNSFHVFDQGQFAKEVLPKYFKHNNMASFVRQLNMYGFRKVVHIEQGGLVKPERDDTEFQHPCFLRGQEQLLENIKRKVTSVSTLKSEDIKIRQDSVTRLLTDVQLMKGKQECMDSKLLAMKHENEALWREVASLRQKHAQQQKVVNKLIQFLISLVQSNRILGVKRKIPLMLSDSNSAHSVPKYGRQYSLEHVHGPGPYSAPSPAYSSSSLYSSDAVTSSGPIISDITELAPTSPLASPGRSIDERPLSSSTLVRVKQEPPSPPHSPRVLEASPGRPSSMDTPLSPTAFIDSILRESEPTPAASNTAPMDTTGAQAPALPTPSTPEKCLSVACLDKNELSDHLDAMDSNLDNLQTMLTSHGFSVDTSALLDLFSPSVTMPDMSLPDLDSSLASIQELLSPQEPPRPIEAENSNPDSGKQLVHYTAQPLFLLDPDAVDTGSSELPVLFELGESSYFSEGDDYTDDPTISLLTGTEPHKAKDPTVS
smiles,measurement,setting,value
O=C1CCN(Cc2ccccc2)CCN1[C@H](CSc1ccccc1)Cc1ccccc1,AC50,CAAX prenyl protease 2,13.9 µM (active)
Cc1cc(NC(=O)COC(=O)C(Cc2ccccc2)NC(=O)c2ccco2)no1 (stereo unspecified),EC50,"Troponin, cardiac muscle",> 71.5 µM (inactive)
same,EC50,[1],4.49 µM (active)
same,EC50,cells [2],> 29.9 µM (inactive)
same,IC50,Galanin receptor type 3,> 29.9 µM (inactive)
O=C(Cn1cc(/C=C\[N+](=O)[O-])c2ccccc21)Nc1ccccc1,EC50,[3],> 50 µM (active)
same,AC50,[4],7.45 µM (active)
CCOC(=O)Cc1c(C)nc2c(-c3cccc(Br)c3)cnn2c1O,IC50,cells [5],3.08 µM (active)
same,EC50,Streptococcus,6.07 µM (active)
same,EC50,[6],3.46 µM (active)
same,CC50,[7],8.15 µM (active)
same,CC50,[8],16.4 µM (active)
same,CC50,[9],11.9 µM (active)
COc1cc(OC)cc(C(=O)Oc2c(CN3CCOCC3)cc(Cl)c3cccnc23)c1,IC50,cells [5],15.4 µM (active)
same,CC50,[7],3.74 µM (active)
same,EC50,[10],2.94 µM (active)
same,CC50,[8],17 µM (active)
same,CC50,[9],7.27 µM (active)
same,EC50,[11],> 150 µM (inconclusive)
COc1ccc(C(C(=O)NC2CCCCC2)N(C(=O)c2snc(C(N)=O)c2N)c2ccc(OC)cc2OC)cc1 (stereo unspecified),AC50,Trypsin,21.6 µM (active)
same,AC50,CAAX prenyl protease 2,22.1 µM (active)
same,IC50,Beta-galactosidase,> 80 µM (inactive)
COc1ccc(OC)c(NS(=O)(=O)c2cccc3cccnc23)c1,IC50,[12],> 100 µM (not active)
same,IC50,[13],> 100 µM (inactive)
O=C(CN1CCCCC1)c1ccc(O)c(O)c1,IC50,[14],67.5 µM (active)
same,IC50,[13],43.2 µM (active)
Cc1ccccc1OCCC(=O)Nc1cc(S(=O)(=O)N2CCOCC2)ccc1OC(C)C,EC50,[15],4.27 µM (active)
CCN(CC)c1ccc(/C=c2\sc3nc4ccccc4n3c2=O)c(O)c1,EC50,"Troponin, cardiac muscle",2.78 µM (active)
same,IC50,Protein skinhead-1,> 100 µM (inactive)
CCOC(=O)c1sc2nc(C)nc(SCC(=O)NC3CCS(=O)(=O)C3)c2c1C (stereo unspecified),EC50,[16],> 260 µM (inactive)
same,EC50,"Troponin, cardiac muscle",> 71.5 µM (inactive)

# From ChEMBL document CHEMBL1201862, “PubChem BioAssay data set” (2004)
